Tests used:
Format in all cases: cell-based
[1] = biological target: T1, ATP-dependent translocase ABCB1 (Homo sapiens, UniProt P08183); assay: Inhibition of human ABCB1 pump expressed in mouse L5178 cells assessed as fluorescence activity ratio at 20 uM for 10 mins by flow cytometry relative to control; conditions: l5178, 10 min
[2] = biological target: T1, ATP-dependent translocase ABCB1; assay: Inhibition of human ABCB1 expressed in mouse L5178 cells assessed as 50% inhibition of cell proliferation at compound-doxorubicin ratio of 40.8:1 after 48 hrs by MTT assay; conditions: l5178, 48 h
[3] = biological target: T1, ATP-dependent translocase ABCB1; assay: Inhibition of human ABCB1 expressed in mouse L5178 cells assessed as 75% inhibition of cell proliferation at compound-doxorubicin ratio of 40.8:1 after 48 hrs by MTT assay; conditions: l5178, 48 h
[4] = biological target: T1, ATP-dependent translocase ABCB1; assay: Inhibition of human ABCB1 expressed in mouse L5178 cells assessed as 95% inhibition of cell proliferation at compound-doxorubicin ratio of 40.8:1 after 48 hrs by MTT assay; conditions: l5178, 48 h
[5] = biological target: T1, ATP-dependent translocase ABCB1; assay: Inhibition of human ABCB1 expressed in mouse L5178 cells assessed as 50% inhibition of cell proliferation at compound-doxorubicin ratio of 20.4:1 after 48 hrs by MTT assay; conditions: l5178, 48 h
[6] = biological target: T1, ATP-dependent translocase ABCB1; assay: Inhibition of human ABCB1 expressed in mouse L5178 cells assessed as 75% inhibition of cell proliferation at compound-doxorubicin ratio of 20.4:1 after 48 hrs by MTT assay; conditions: l5178, 48 h
[7] = biological target: T1, ATP-dependent translocase ABCB1; assay: Inhibition of human ABCB1 expressed in mouse L5178 cells assessed as 95% inhibition of cell proliferation at compound-doxorubicin ratio of 20.4:1 after 48 hrs by MTT assay; conditions: l5178, 48 h

T1 sequence (P08183 whole entry): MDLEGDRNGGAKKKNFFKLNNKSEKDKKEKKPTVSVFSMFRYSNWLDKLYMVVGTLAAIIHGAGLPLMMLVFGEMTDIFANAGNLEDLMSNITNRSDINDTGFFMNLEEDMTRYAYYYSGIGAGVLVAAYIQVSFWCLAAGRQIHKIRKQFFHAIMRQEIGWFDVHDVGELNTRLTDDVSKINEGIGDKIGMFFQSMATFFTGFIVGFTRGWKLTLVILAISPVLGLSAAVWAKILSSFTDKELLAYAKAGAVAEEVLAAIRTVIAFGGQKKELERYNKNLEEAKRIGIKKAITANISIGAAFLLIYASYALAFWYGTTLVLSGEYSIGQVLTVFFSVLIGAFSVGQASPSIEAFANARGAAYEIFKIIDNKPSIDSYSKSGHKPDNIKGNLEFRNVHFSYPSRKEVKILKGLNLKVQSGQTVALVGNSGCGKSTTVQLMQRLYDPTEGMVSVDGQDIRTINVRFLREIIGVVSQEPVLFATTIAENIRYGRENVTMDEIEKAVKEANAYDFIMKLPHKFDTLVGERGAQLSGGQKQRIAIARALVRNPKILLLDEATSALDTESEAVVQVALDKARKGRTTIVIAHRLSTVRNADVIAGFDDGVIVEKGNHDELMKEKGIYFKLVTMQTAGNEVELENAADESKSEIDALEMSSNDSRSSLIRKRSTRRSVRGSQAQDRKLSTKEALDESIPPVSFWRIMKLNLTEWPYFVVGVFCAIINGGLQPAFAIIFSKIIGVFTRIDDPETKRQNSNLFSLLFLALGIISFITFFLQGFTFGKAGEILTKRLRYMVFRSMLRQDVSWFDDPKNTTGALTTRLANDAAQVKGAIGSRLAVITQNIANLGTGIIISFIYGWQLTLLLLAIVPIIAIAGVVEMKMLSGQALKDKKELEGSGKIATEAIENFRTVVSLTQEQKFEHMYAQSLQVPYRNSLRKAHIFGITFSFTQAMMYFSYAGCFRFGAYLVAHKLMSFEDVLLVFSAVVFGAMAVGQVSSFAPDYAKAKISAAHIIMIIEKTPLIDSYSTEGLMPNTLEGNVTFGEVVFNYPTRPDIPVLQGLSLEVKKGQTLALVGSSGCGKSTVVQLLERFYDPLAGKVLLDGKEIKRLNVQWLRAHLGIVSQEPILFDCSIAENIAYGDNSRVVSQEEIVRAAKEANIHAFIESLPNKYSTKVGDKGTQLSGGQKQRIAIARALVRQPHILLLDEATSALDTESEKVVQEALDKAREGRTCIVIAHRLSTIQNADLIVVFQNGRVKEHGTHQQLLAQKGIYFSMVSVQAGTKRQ

SMILES | Ratio [1] | fractional inhibitory concentration index (FICI) [2] | fractional inhibitory concentration index (FICI) [3] | fractional inhibitory concentration index (FICI) [4] | fractional inhibitory concentration index (FICI) [5] | fractional inhibitory concentration index (FICI) [6] | fractional inhibitory concentration index (FICI) [7]
CC(C)(O)CC[C@H]1OC(C)(C)O[C@]1(C)[C@H]1CC[C@@]2(O)C3=CC(=O)[C@@H]4C[C@@H](O)[C@@H](O)[C@@H](O)[C@]4(C)[C@H]3CC[C@]12C | 1.14 | 1.16 | 0.51 | 0.23 |  |  | 
CC(C)CC[C@H]1OC(C)(C)O[C@]1(C)[C@H]1CC[C@@]2(O)C3=CC(=O)[C@@H]4C[C@@H](O)[C@@H](O)C[C@]4(C)[C@H]3[C@H](O)C[C@]12C | 1.93 |  |  |  | 0.52 | 0.25 | 0.13
CC(C)(O)CC[C@@H](OC(=O)c1ccccc1)[C@](C)(O)[C@H]1CC[C@@]2(O)C3=CC(=O)[C@@H]4C[C@@H](O)[C@@H](O)C[C@]4(C)[C@H]3CC[C@]12C | 2.18 | 0.58 | 0.43 | 0.32 |  |  | 
CC(=O)O[C@H]1C[C@]2(C)[C@H]3CC[C@]4(C)[C@@H]([C@@](C)(O)[C@@H](CCC(C)(C)O)OC(C)=O)CC[C@@]4(O)C3=CC(=O)[C@]2(O)C[C@H]1O | 0.84 | 1.22 | 0.86 | 0.6 |  |  | 
CC(C)(O)CC[C@@H](O)[C@](C)(O)[C@H]1CC[C@@]2(O)C3=CC(=O)[C@@H]4C[C@@H](O)CC[C@]4(C)[C@H]3CC[C@]12C | 0.55 | 1.05 | 1.48 | 2.26 |  |  | 
CC(C)CC[C@@H](O)[C@](C)(O)[C@H]1CC[C@@]2(O)C3=CC(=O)[C@@H]4C[C@@H](O)[C@@H](O)C[C@]4(C)C3=CC[C@]12C [DACRYHAINANSTERONE] | 1.07 | 1.76 | 2.92 | 5.46 |  |  | 
CC(C)(O)CC[C@@H](O)[C@](C)(O)[C@H]1CC[C@@]2(O)C3=CC(=O)[C@H]4C[C@@H](O)C[C@@H](O)[C@]4(C)[C@H]3CC[C@]12C | 0.68 |  |  |  | 2.48 | 1.7 | 1.97
CC1(CC[C@H]2OC(C)(C)O[C@]2(C)[C@H]2CC[C@@]3(O)C4=CC(=O)[C@@H]5C[C@H]6OC(C)(C)O[C@H]6C[C@]5(C)[C@H]4CC[C@]23C)COC(C)(C)O1 (some centres not stated) | 24.39 |  |  |  | 0.23 | 0.16 | 0.12
C[C@@H]1C(=O)O[C@H](C)[C@H]1C[C@@H](O)[C@](C)(O)[C@H]1CC[C@@]2(O)C3=CC(=O)[C@@H]4C[C@@H](O)[C@@H](O)C[C@]4(C)[C@H]3CC[C@]12C [CYASTERONE] | 0.75 | 1.54 | 0.85 | 0.47 |  |  | 

Further lines, with some results ahead:

Ratio [1] | SMILES | fractional inhibitory concentration index (FICI) [2] | fractional inhibitory concentration index (FICI) [3] | fractional inhibitory concentration index (FICI) [4] | fractional inhibitory concentration index (FICI) [5] | fractional inhibitory concentration index (FICI) [6] | fractional inhibitory concentration index (FICI) [7]
0.66 | CC(C)(O)CCC[C@](C)(O)[C@H]1CC[C@@]2(O)C3=CC(=O)[C@@H]4C[C@@H](O)[C@@H](O)[C@@H](O)[C@]4(C)[C@H]3CC[C@]12C | 1.37 | 0.9 | 0.6 |  |  | 
0.88 | C=C(CCCC(C)(C)O)[C@H]1CC[C@@]2(O)C3=CC(=O)[C@@H]4C[C@@H](O)[C@@H](O)C[C@]4(C)[C@H]3CC[C@]12C | 1.05 | 0.71 | 0.53 |  |  | 
0.63 | CCC1C[C@H]([C@](C)(O)[C@H]2CC[C@@]3(O)C4=CC(=O)[C@@H]5C[C@@H](O)[C@@H](O)C[C@]5(C)[C@H]4CC[C@]23C)OC(=O)C1C (some centres not stated) [CAPITASTERONE] | 1.35 | 0.74 | 0.49 |  |  | 
1.58 | C=C(CCCC(C)(C)O)[C@H]1CC[C@@]2(O)C3=CC(=O)[C@@H]4C[C@@H](O)[C@@H](O)[C@@H](O)[C@]4(C)[C@H]3CC[C@]12C |  |  |  | 0.79 | 0.86 | 0.95

Source: ChEMBL document CHEMBL2086273, “Significant activity of ecdysteroids on the resistance to doxorubicin in mammalian cancer cells expressing the human ABCB1 transporter” (J Med Chem, 2012)
